# Measured values from publication PMC11724075, “Small-molecule-induced ERBB4 activation to treat heart failure” (Nature Communications, 2025).
# Several values for one entry are separate records, joined by “and”; a condition that tells them apart may be missing. Equal values may be shown once.
# Tests used:
# HCFs = test: In vitro collagen expression: COL3A1 mRNA in HCFs stimulated with TGF-β1; type: cell-based, human; conditions: for COL3A1 mRNA expression (FC): TGF-β1 10 ng/mL, 24 h, single replicates
# Description: HCFs were seeded at a density of 1.5 ×10^5 cells/well in doxycycline-free medium in 12-well plates (Greiner Bio-One, 665180) and incubated overnight. […] Compounds were pre-incubated for 10 min before addition of TGF-β1.
# RNA was extracted using Nucleospin RNA XS (Macherey-Nagel, 740902.50) according to the manufacturer’s instructions. For cDNA synthesis, total RNA was added to a mixture containing buffer with random hexamers and reverse transcriptase enzyme (TaqMan reverse transcription reagents, Applied biosystems, N8080234) after which samples were incubated for 10 min at 25 °C, 30 min at 48 °C, and 5 min at 95 °C. RT-qPCR was performed on QuantStudio 3 Real-time PCR system (Applied Biosystems) using Taqman Universal PCR Master Mix (Applied Biosystems, 4304437) and Taqman primers according to the manufacturer’s instructions. Settings were as follows: […] followed by 10 min at 95 °C, 40 cycles (45 cycles for ERBB4) of denaturation at 95 °C for 15 s, and 1 min at 60 °C. All reactions were run in duplicate, and all data were normalized against housekeeping genes glyceraldehyde-3-phosphate dehydrogenase (GAPDH), beta-actin (ACTB), or phosphoglycerate kinase 1 (PGK1). Expression levels were calculated using the comparative cycle method and expressed as fold change (FC) to appropriate controls. The following TaqMan primers were used (Thermo Fisher Scientific): GAPDH (Hs02758991_g1, Mm99999915_g1 and Rn01775763_g1), PGK1 (Hs99999906_m1), ID2 (Hs04187239_m1), BMPR1B (Hs01010965_m1), CACNA2D4 (Hs00297782_m1), DUSP2 (Hs00358879_m1), NR4A1 (Hs00374226_m1), SGK1 (Hs00178612_m1), COL1A1 (Mm00801666_g1), COL3A1 (Hs00943809_m1 and Mm00802305_g1), ERBB4 (Hs00955525_m1 and Rn00572447_m1), ACTB (Mm02619580_g1) and ANP (Mm01255747_g1).
# iAMs = test: H2O2-induced cell death assay in iAMs (Toxilight), also with LY294002; conditions: for total cell death of iAMs (percentage of total dead cells): H2O2 100 µM, 4 h; for total cell death of iAMs (percentage of total dead cells) / total cell death of iAMs: single replicates
# Description: Subsequently, H2O2 (100 µM; Merck, H1009) was added and the cells were incubated for 4 h at 37 °C. All wells contained DMSO at a final concentration of 0.9%. […] After incubation at RT for 5 min, luminescence was measured using the Luminoskan Ascent.
# [1] = test system: mouse model of AngII-induced myocardial fibrosis; test: AngII-induced myocardial fibrosis mouse model, 4 weeks, echocardiography, wild-type mice; type: in vivo
# Description: Four weeks after implantation, cardiac ultrasound was performed, mice were euthanized, and hearts were collected. A similar set-up was used for the 1-week study (Alzet, model 1007D) in male mice (n = 9-10 mice in every group).
# Echocardiography was performed using the Vevo F2-LAZRX (FUJIFILM VisualSonics) and UHF57x probe. Mice were anesthetized with 1.5% isoflurane (Alvira, BE-V512222). Parasternal long-axis B-mode images and M-mode images were obtained and analyzed using VevoLAB software (FUJIFILM VisualSonics, Version 5.7.1). For the AngII experiments, measurements were obtained through analysis of the short-axis M-mode. For the MI experiments, measurements were obtained through analysis of the parasternal long-axis B-mode, of which the area and end-volume of the left ventricular cavity in diastole and systole were determined by tracing the endocardial border. Acquisitions, measurements and analyses were performed blinded.
# Supplementary Table 2. Echocardiographic parameters. Echocardiographic parameters obtained through the analysis of the M-mode short-axis views. (a) Male and (b) female wild-type mice treated […]
# mice in EF-1 group). (c) Male wild-type mice treated with AngII and NA-1 (n=5 male mice in Ctrl and AngII/Veh group, n=4 male mice in AngII/NA -1 group). (d) Comparison between wild-type and Erbb4-null mice (n=10 male and female wild -type mice and n=6 male and female Erbb4-null mice). (e) Male […]
# Echocardiographic parameters obtained through left ventricular trace analysis of the parasternal long-axis obtained in B-mode in female wild-type mice that underwent a sham or MI operation: mice with […]
# in MI/EF-1 group). (g) Echocardiographic parameters obtained through left ventricular trace analysis of the parasternal long-axis obtained in B-mode in male wild-type mice that underwent a sham or MI […]
# male mice in MI/Veh group for T2 and T4). Echocardiographic parameters were measured weekly (indicated by ‘T’). All data are presented as mean (value of individual mice) ± SD, two-tailed unpaired […]
# 1 groups. Source data are provided as a Source Data file. AngII, angiotensin II; ANOVA, analysis of variance; Ctrl, control; DOX, doxorubicin; EF, ejection fraction; ERBB4, erythroblastic leukemia viral oncogene homolog 4; FS, fractional shortening; IVSd, interventricular septum thickness in diastole; IVSs, interventricular septum thickness in systole; LVIDd, left ventricular internal diameter in diastole; LVIDs, left ventricular internal diameter in systole; LVPWd, left ventricular posterior wall thickness in diastole; LVPWs, left ventricular posterior wall thickness in systole; MI, myocardial infarction; NA, non-activating pharmacophore-containing compound; SD, standard variation; Veh, vehicle.
# [2] = Female wild-type mice, AngII/EF-1
# [3] = Male wild-type mice, AngII/EF-1
# [4] = Male wild-type mice, EF-1 without AngII
# [5] = female wild-type mice, AngII/EF-1, 4 weeks, mean ± SD
# [6] = male wild-type mice, AngII + compound 2 mg/kg/day, 4 weeks, mean ± SD
# [7] = male wild-type mice, EF-1 group without AngII, 4 weeks, mean ± SD
compound,measurement,setting,value
O=C(NC1CC1)C(Sc1nc2ccccc2c(=O)n1C1CCCC1)c1ccccc1 (stereo not shown) [EF-1],COL3A1 mRNA expression (FC),"HCFs; EF-1 + SiERBB4, 1e-6 M",1
same,COL3A1 mRNA expression (FC),"HCFs; EF-1 + SiERBB4, 4e-6 M",0.5373 and 0.7163 and 0.5917 and 0.6311 and 0.7899 and 0.8499
same,COL3A1 mRNA expression (FC),"HCFs; EF-1 + SiERBB4, 8e-6 M",0.8243 and 0.8469 and 0.7111 and 0.7439 and 0.7398 and 0.6183
same,COL3A1 mRNA expression (FC),"HCFs; EF-1 + SiERBB4, 1.6e-5 M",0.5202 and 0.6505 and 0.7517 and 0.6477 and 0.5129
same,COL3A1 mRNA expression (FC),"HCFs; EF-1 + SiERBB4, 3.2e-5 M",0.7721 and 0.6715 and 0.5121 and 0.7108 and 0.5403 and 0.6885
same,COL3A1 mRNA expression (FC),"HCFs; EF-1 + SiScr, 1e-6 M",0.9505 and 1.0731 and 0.9765
same,COL3A1 mRNA expression (FC),"HCFs; EF-1 + SiScr, 4e-6 M",0.3565 and 0.5152 and 0.404
same,COL3A1 mRNA expression (FC),"HCFs; EF-1 + SiScr, 8e-6 M",0.4855 and 0.3848 and 0.5526
same,COL3A1 mRNA expression (FC),"HCFs; EF-1 + SiScr, 1.6e-5 M",0.2758 and 0.3929 and 0.4764
same,COL3A1 mRNA expression (FC),"HCFs; EF-1 + SiScr, 3.2e-5 M",0.4172 and 0.4035 and 0.5599
same,decrease of TGF-β1-induced COL3A1 mRNA levels,"HCFs; HCFs, dose-dependent, 4–32 µM",up to 50%
same,total cell death of iAMs (percentage of total dead cells),"iAMs; EF-1 + SiERBB4, 1e-6 M",68.0221 and 60.0225 and 62.2886
same,total cell death of iAMs (percentage of total dead cells),"iAMs; EF-1 + SiERBB4, 4e-6 M",72.51 and 56.29 and 70.83
same,total cell death of iAMs (percentage of total dead cells),"iAMs; EF-1 + SiERBB4, 8e-6 M",69.73 and 50.25 and 72.39
same,total cell death of iAMs (percentage of total dead cells),"iAMs; EF-1 + SiERBB4, 1.6e-5 M",67.67 and 53.83 and 80.13
same,total cell death of iAMs (percentage of total dead cells),"iAMs; EF-1 + SiERBB4, 3.2e-5 M",64.65 and 55.01 and 72.56
same,total cell death of iAMs (percentage of total dead cells),"iAMs; EF-1 + SiScr, 1e-6 M",62.2886 and 68.0221 and 60.0225
same,total cell death of iAMs (percentage of total dead cells),"iAMs; EF-1 + SiScr, 4e-6 M",34.38 and 49.85 and 69.84
same,total cell death of iAMs (percentage of total dead cells),"iAMs; EF-1 + SiScr, 8e-6 M",29.53 and 51.53 and 63.09
same,total cell death of iAMs (percentage of total dead cells),"iAMs; EF-1 + SiScr, 1.6e-5 M",23.16 and 29.77 and 55.38
same,total cell death of iAMs (percentage of total dead cells),"iAMs; EF-1 + SiScr, 3.2e-5 M",15.16 and 25.21 and 30.15
same,total cell death of iAMs,"iAMs; H2O2/EF-1 (32 µM) + LY294002 (20 µM, 10 min pretreatment)",37.778 and 30.0948 and 30.3358 and 33.2686
same,total cell death of iAMs,"iAMs; H2O2/EF-1 (32 µM), without LY294002",27.2571 and 19.0561 and 18.1394 and 25.7513
same,decrease of H2O2-induced cardiomyocyte cell death,iAMs; at its highest dose,more than 75%
same,effect on cardiac dimensions on ultrasound (in words),"[1]; AngII model, both sexes",did not significantly alter cardiac dimensions
same,FS,[1]; [2],11.5 ± 5.5%
same,IVSd,[1]; [2],0.53 ± 0.07 mm
same,IVSs,[1]; [2],0.7 ± 0.1 mm
same,LVIDd,[1]; [2],4.2 ± 0.3 mm
same,LVIDs,[1]; [2],3.7 ± 0.4 mm
same,LVPWd,[1]; [2],0.5 ± 0.1 mm
same,LVPWs,[1]; [2],0.6 ± 0.1 mm
same,FS,[1]; [3],16.6 ± 3.6%
same,IVSd,[1]; [3],0.8 ± 0.1 mm
same,IVSs,[1]; [3],1.1 ± 0.2 mm
same,LVIDd,[1]; [3],4.4 ± 0.3 mm
same,LVIDs,[1]; [3],3.7 ± 0.4 mm
same,LVPWd,[1]; [3],0.8 ± 0.2 mm
same,LVPWs,[1]; [3],0.9 ± 0.2 mm
same,FS,[1]; [4],18.5 ± 5.1%
same,IVSd,[1]; [4],0.9 ± 0.1 mm
same,IVSs,[1]; [4],1.2 ± 0.1 mm
same,LVIDd,[1]; [4],4.2 ± 0.3 mm
same,LVIDs,[1]; [4],3.4 ± 0.3 mm
same,LVPWd,[1]; [4],0.75 ± 0.03 mm
same,LVPWs,[1]; [4],0.9 ± 0.1 mm
same,FS,[1]; [5],11.5 ± 5.5%
same,IVSd,[1]; [5],0.53 ± 0.07 mm
same,IVSs,[1]; [5],0.7 ± 0.1 mm
same,LVIDd,[1]; [5],4.2 ± 0.3 mm
same,LVIDs,[1]; [5],3.7 ± 0.4 mm
same,LVPWd,[1]; [5],0.5 ± 0.1 mm
same,LVPWs,[1]; [5],0.6 ± 0.1 mm
same,FS,[1]; [6],16.6 ± 3.6%
same,IVSd,[1]; [6],0.8 ± 0.1 mm
same,IVSs,[1]; [6],1.1 ± 0.2 mm
same,LVIDd,[1]; [6],4.4 ± 0.3 mm
same,LVIDs,[1]; [6],3.7 ± 0.4 mm
same,LVPWd,[1]; [6],0.8 ± 0.2 mm
same,LVPWs,[1]; [6],0.9 ± 0.2 mm
same,FS,[1]; [7],18.5 ± 5.1%
same,IVSd,[1]; [7],0.9 ± 0.1 mm
same,IVSs,[1]; [7],1.2 ± 0.1 mm
same,LVIDd,[1]; [7],4.2 ± 0.3 mm
same,LVIDs,[1]; [7],3.4 ± 0.3 mm
same,LVPWd,[1]; [7],0.75 ± 0.03 mm
same,LVPWs,[1]; [7],0.9 ± 0.1 mm
